# Results as given in patent US9695155B2, “Herbicidal substituted pyrimidinyloxy benzene compounds” (E. I. DU PONT DE NEMOURS AND COMPANY, priority 2013, dated 2017).
# Key:
# yellow nutsedge = assay: Test C postemergence; format: in vivo, Cyperus esculentus; conditions: for Nutsedge, Yellow plant response rating: 31 g ai/ha; for Nutsedge, Yellow plant response rating / Plant response rating, Nutsedge, Yellow: scale 0 to 100 (0 no effect, 100 complete control)
# Method in brief: (§1)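 Preemergence: seeds sown in a loam soil–sand blend and sprayed with test chemical in a non-phytotoxic solvent mixture containing surfactant. Postemergence: plants at 2 to 18 cm (1- to 4-leaf stage) in peat-based medium, treated with the same formulation. Greenhouse 13 to 15 days, then visual rating 0 (no effect) to 100 (complete control).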
# wheat, winter = assay: Test C postemergence; format: in vivo, Triticum aestivum; conditions: for Wheat plant response rating: 31 g ai/ha; for Wheat plant response rating / Plant response rating, Wheat: scale 0 to 100 (0 no effect, 100 complete control)
# Method in brief: as §1
# blackgrass = assay: Test C postemergence; format: in vivo, Alopecurus myosuroides; conditions: for Blackgrass plant response rating: 31 g ai/ha; for Blackgrass plant response rating / Plant response rating, Blackgrass: scale 0 to 100 (0 no effect, 100 complete control)
# Description: (§2) Seeds of plant species selected from blackgrass (Alopecurus myosuroides), Italian ryegrass (Lolium multiflorum), wheat, winter (winter wheat, Triticum aestivum), galium (catchweed bedstraw, Galium aparine), corn (Zea mays), large (Lg) crabgrass (Digitaria sanguinalis), giant foxtail (Setaria faberii), johnsongrass (Sorghum halepense), lambsquarters (Chenopodium album), morningglory (Ipomoea coccinea), yellow nutsedge (Cyperus esculentus), pigweed (Amaranthus retroflexus), ragweed (common ragweed, Ambrosia elatior), soybean (Glycine max), barnyardgrass (Echinochloa crus-galli), oilseed rape (Brassica napus), waterhemp (common waterhemp, Amaranthus rudis), kochia (Kochia scoparia), wild oat (Avena fatua), surinam grass (Brachiaria decumbens), foxtail, green (green foxtail, Setaria viridis), goosegrass (Eleusine indica), bromegrass, downy (downy bromegrass, Bromus tectorum), nightshade (eastern black nightshade, Solanum ptycanthum), cocklebur (common cocklebur, Xanthium strumarium), cupgrass, woolly (woolly cupgrass, Eriochloa villosa), bermudagrass (Cynodon dactylon), sunflower, (common oilseed sunflower, Helianthus annuus), Russian thistle (Salsola kali), and velvetleaf (Abutilon theophrasti) were planted into a blend of loam soil and sand and treated preemergence with test chemicals formulated in a non-phytotoxic solvent mixture which included a surfactant.
# (§3) At the same time, plants selected from these crop and weed species and also barley, winter (winter barley, Hordeum vulgare), windgrass (Apera spica-venti), chickweed (common chickweed, Stellaria media), deadnettle (henbit deadnettle, Lamium amplexicaule), and canarygrass (littleseed canarygrass, Phalaris minor) were planted in pots containing Redi-Earth® planting medium (Scotts Company, 14111 Scottslawn Road, Marysville, Ohio 43041) comprising spaghnum peat moss, vermiculite, wetting agent and starter nutrients and treated with postemergence applications of test chemicals formulated in the same manner. Plants ranged in height from 2 to 18 cm (1- to 4-leaf stage) for postemergence treatments. Treated plants and controls were maintained in a greenhouse for 13 to 15 days, after which time all species were compared to controls and visually evaluated. Plant response ratings, summarized in Table C, are based on a scale of 0 to 100 where 0 is no effect and 100 is complete control. A dash (-) response means no test result.
# wild oat = assay: Test C postemergence; format: in vivo, Avena fatua; conditions: for Oat, Wild plant response rating: 31 g ai/ha; for Oat, Wild plant response rating / Plant response rating, Oat, Wild: scale 0 to 100 (0 no effect, 100 complete control)
# Description: as §2, §3
# rice = assay: Test B flooded paddy test; format: in vivo, Oryza sativa; conditions: Flood, 250 g ai/ha; 0 to 100 scale where 0 is no effect and 100 is complete control
# Method in brief: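 Plants were grown to the 2-leaf stage, then pots were flooded to 3 cm above the soil and compounds were applied directly into the paddy water. That depth was held throughout, and after 13 to 15 days in the greenhouse injury was rated visually against controls on a 0–100 scale (0 no effect, 100 complete control).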
# ragweed = assay: Test C postemergence; format: in vivo, Ambrosia elatior; conditions: for Ragweed plant response rating: 31 g ai/ha; for Ragweed plant response rating / Plant response rating, Ragweed: scale 0 to 100 (0 no effect, 100 complete control)
# Method in brief: as §1
# Italian ryegrass = assay: Test C postemergence; format: in vivo, Lolium multiflorum; conditions: for Ryegrass, Italian plant response rating: 31 g ai/ha; for Ryegrass, Italian plant response rating / Plant response rating, Ryegrass, Italian: scale 0 to 100 (0 no effect, 100 complete control)
# Method in brief: as §1
# lambsquarters = assay: Test C postemergence; format: in vivo, Chenopodium album; conditions: for Lambsquarters plant response rating: 31 g ai/ha; for Lambsquarters plant response rating / Plant response rating, Lambsquarters: scale 0 to 100 (0 no effect, 100 complete control)
# Description: as §2, §3
# giant foxtail = assay: Test A preemergence; format: in vivo, Setaria faberii
# Method in brief: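 Scoring: eye-based comparison with untreated controls, 0 for no effect through 100 for complete control, at about day 10. Treatments: directed soil spray preemergence; foliar spray postemergence on 2–10 cm plants at the one- to two-leaf stage. Medium: loam soil with sand.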
# pigweed = assay: Test C postemergence; format: in vivo, Amaranthus retroflexus; conditions: for Pigweed plant response rating: 31 g ai/ha; for Pigweed plant response rating / Plant response rating, Pigweed: scale 0 to 100 (0 no effect, 100 complete control)
# Method in brief: as §1
# [1] = 16 g ai/ha, postemergence, 0 is no effect, 100 is complete control
# [2] = postemergence, visual rating, 13 to 15 days
# [3] = 125 g ai/ha, postemergence, visual rating
# [4] = Postemergence, 62 g ai/ha, 13 to 15 days
smiles,measurement,setting,value
Fc1cccc(Oc2ncc(Cl)cn2)c1-n1cc(C2CC2)nn1 [Compound 155],"Plant response rating (0 to 100), Nutsedge, Yellow",yellow nutsedge; [1],5
same,"Nutsedge, Yellow plant response rating",yellow nutsedge; [2],5
same,"Plant response rating, Nutsedge, Yellow",yellow nutsedge; [3],5
same,"Plant response rating, Nutsedge, Yellow","yellow nutsedge; Postemergence, 62 g ai/ha",5
same,"Plant response rating (0 to 100), Wheat","wheat, winter; [1]",5
same,Wheat plant response rating,"wheat, winter; [2]",10
same,"Plant response rating, Wheat","wheat, winter; [3]",35
same,"Plant response rating, Wheat","wheat, winter; Postemergence, 62 g ai/ha",15
same,"Plant response rating (0 to 100), Blackgrass",blackgrass; [1],0
same,Blackgrass plant response rating,blackgrass; [2],5
same,"Plant response rating, Blackgrass",blackgrass; [3],5
same,"Plant response rating, Blackgrass","blackgrass; Postemergence, 62 g ai/ha",5
same,"Plant response rating (0 to 100), Oat, Wild",wild oat; [1],0
same,"Oat, Wild plant response rating",wild oat; [2],0
same,"Plant response rating, Oat, Wild",wild oat; [3],25
same,"Plant response rating, Oat, Wild","wild oat; Postemergence, 62 g ai/ha",5
same,"Plant response rating, Rice",rice,50
same,"Plant response rating (0 to 100), Ragweed",ragweed; [1],50
same,Ragweed plant response rating,ragweed; [2],55
same,"Plant response rating, Ragweed",ragweed; [3],85
same,"Plant response rating, Ragweed","ragweed; Postemergence, 62 g ai/ha",70
same,"Plant response rating (0 to 100), Ryegrass, Italian",Italian ryegrass; [1],0
same,"Ryegrass, Italian plant response rating",Italian ryegrass; [2],0
same,"Plant response rating, Ryegrass, Italian",Italian ryegrass; [3],10
same,"Plant response rating, Ryegrass, Italian","Italian ryegrass; Postemergence, 62 g ai/ha",10
same,"Plant response rating (0 to 100), Lambsquarters",lambsquarters; [1],65
same,Lambsquarters plant response rating,lambsquarters; [2],90
same,"Plant response rating, Lambsquarters",lambsquarters; [3],98
same,"Plant response rating, Lambsquarters","lambsquarters; Postemergence, 62 g ai/ha",98
same,"Foxtail, Giant plant response rating","giant foxtail; 1000 g ai/ha, 0 to 100 scale, 0 no effect, 100 complete control, approx. 10 days",100
same,"Plant response rating (0 to 100), Pigweed",pigweed; [1],80
same,Pigweed plant response rating,pigweed; [2],75
same,"Plant response rating, Pigweed",pigweed; [3],98
same,"Plant response rating, Pigweed","pigweed; Postemergence, 62 g ai/ha",98
N#Cc1cccc(Oc2ncc(Cl)cn2)c1-n1cc(-n2ccc(C(F)(F)F)n2)cn1 [Compound 284],"Nutsedge, Yellow plant response rating",yellow nutsedge; [2],0
same,"Plant response rating, Nutsedge, Yellow",yellow nutsedge; [3],0
same,"Plant response rating (0 to 100), Nutsedge, Yellow","yellow nutsedge; 250 g ai/ha, postemergence",5
same,"Plant response rating, Nutsedge, Yellow",yellow nutsedge; [4],0
same,Wheat plant response rating,"wheat, winter; [2]",0
same,"Plant response rating, Wheat","wheat, winter; [3]",5
same,"Plant response rating (0 to 100), Wheat","wheat, winter; 250 g ai/ha, postemergence",5
same,"Plant response rating, Wheat","wheat, winter; [4]",5
same,Blackgrass plant response rating,blackgrass; [2],5
same,"Plant response rating, Blackgrass",blackgrass; [3],5
same,"Plant response rating (0 to 100), Blackgrass","blackgrass; 250 g ai/ha, postemergence",5
same,"Plant response rating, Blackgrass",blackgrass; [4],5
same,"Oat, Wild plant response rating",wild oat; [2],5
same,"Plant response rating, Oat, Wild",wild oat; [3],5
same,"Plant response rating (0 to 100), Oat, Wild","wild oat; 250 g ai/ha, postemergence",5
same,"Plant response rating, Oat, Wild",wild oat; [4],5
same,"Plant response rating, Rice",rice,0
same,Ragweed plant response rating,ragweed; [2],55
same,"Plant response rating, Ragweed",ragweed; [3],50
same,"Plant response rating (0 to 100), Ragweed","ragweed; 250 g ai/ha, postemergence",80
same,"Plant response rating, Ragweed",ragweed; [4],55
same,"Ryegrass, Italian plant response rating",Italian ryegrass; [2],5
same,"Plant response rating, Ryegrass, Italian",Italian ryegrass; [3],5
same,"Plant response rating (0 to 100), Ryegrass, Italian","Italian ryegrass; 250 g ai/ha, postemergence",5
same,"Plant response rating, Ryegrass, Italian",Italian ryegrass; [4],5
same,Lambsquarters plant response rating,lambsquarters; [2],70
same,"Plant response rating, Lambsquarters",lambsquarters; [3],98
same,"Plant response rating (0 to 100), Lambsquarters","lambsquarters; 250 g ai/ha, postemergence",98
same,"Plant response rating, Lambsquarters",lambsquarters; [4],85
same,"Foxtail, Giant plant response rating (0 to 100 scale)",giant foxtail; 125 g ai/ha,90
same,"Foxtail, Giant plant response rating","giant foxtail; 500 g ai/ha, 0 to 100 scale where 0 is no effect and 100 is complete control",90
same,Pigweed plant response rating,pigweed; [2],98
same,"Plant response rating, Pigweed",pigweed; [3],100
same,"Plant response rating (0 to 100), Pigweed","pigweed; 250 g ai/ha, postemergence",100
same,"Plant response rating, Pigweed",pigweed; [4],98
